Where “and” joins values, the source holds several entries; their conditions need not be identical. Equal values may be shown once. Read-outs that look alike come from different tables or passages of the source.
Experiments:
[1] = in vivo, iv, 20 mg/kg
[2] = in vivo; settings: non-human primates, iv, 20 mg/kg
[3] = clinical; settings: human, in vivo, iv; for half-life: Selected Parameter Value
[4] = 2 compartment model, cited from earlier work
[5] = cited from earlier work; for Conc (plasma concentration): 200 mg intravenously, subject 68 kg; for Alpha / A: individual subjects W
[6] = Published cocaine pharmacokinetics in humans, IV bolus: parameters and PCT profile (Barnett et al. 1981)
[7] = Three compartment PK model parameter estimation from etomidate PCT profile (64 bound combinations, MWDO + Nelder Mead); design: species or system humans
[8] = cited from earlier work; for Conc (plasma concentration): 18.3 mg intravenously, subject 60.9 kg
[9] = clinical; settings: human, in vivo, iv
[10] = IV infusion 10 mg; cited from earlier work
[11] = IV Infusion, 4 mg for 5 minutes
[12] = 200 mg IV, two compartment model
[13] = IV bolus, Dose = 100 mg, X, Y, listed as Cocain
[14] = IV bolus, Dose = 200 mg, Z, listed as Cocain
[15] = IVBolus 200 mg, bi-exponential model (Table 6)
[16] = MWDO, Upper Bound 1 of Table 18
[17] = MWDO, Upper Bound 2 of Table 18
[18] = MWDO, Upper Bound 3 of Table 18
[19] = Nelder Mead, bound combination 1
[20] = Nelder Mead, bound combination 2
[21] = Nelder Mead, bound combination 3
[22] = best set over all 64 bound combinations

With COc1cc(NCc2ccc3nc(N)nc(N)c3c2C)cc(OC)c1OC [Trimetrexate] the “K10, Converted value” ([1]; non-human primate) was 3.096 h⁻¹, the “K10, Selected Parameter Value” ([1]; non-human primate) was 0.0516 min⁻¹ and the “K12, Converted value” ([1]; non-human primates) was 0.87 h⁻¹. The “K12, Selected Parameter Value” ([1]; non-human primates) was 0.0145 min⁻¹, the “K13, Converted value” ([1]; non-human primates) was 0.0075 h⁻¹ and the “K13, Selected Parameter Value” ([1]; non-human primates) was 0.000125 min⁻¹. For the same compound, the “K21, Converted value” ([1]; non-human primates) was 1.296 h⁻¹, the “K21, Selected Parameter Value” ([1]; non-human primates) was 0.0216 min⁻¹ and the “K31, Converted value” ([1]; non-human primates) was 0.093 h⁻¹. The “K31, Selected Parameter Value” ([1]; non-human primates) was 0.00155 min⁻¹, the “V1, Converted value” ([1]; non-human primates) was 0.15 L/kg and the “V1, Selected Parameter Value” ([1]; non-human primates) was 0.15 L/kg. The “V2, Converted value” ([1]; non-human primates) was 0.079 L/kg, the “V2, Selected Parameter Value” ([1]; non-human primates) was 0.079 L/kg and the “cl, Converted value” ([1]; non-human primates) was 0.252 L/h. The clearance [2] was 4.2 mL/min, the half-life ([2]; T1/2 alpha, Converted value) was 0.305 h and the half-life ([2]; T1/2 alpha, Selected Parameter Value) was 0.305 h. It also gave a half-life ([2]; T1/2 beta, Converted value) of 1.43 h and a half-life ([2]; T1/2 beta, Selected Parameter Value) of 1.43 h.

OC(CCN1CCCCC1)(c1ccccc1)C1CC2C=CC1C2 (stereo not drawn) [Biperiden] showed a clearance [3] of 1.49 L/h/kg, a half-life ([3]; T1/2 Alpha) of 1.7 h and a half-life ([3]; T1/2 beta) of 28.2 h. The “AUC, Value” [4, 11] was 0.0628 µg·h/mL, the “CL, Value” [4, 11] was 1.44 L/h/kg and the “K12, Value” [4, 11] was 0.1910 h⁻¹. The “K21, Value” [4, 11] was 0.06 h⁻¹, the “T1/2 Alpha, Value” [4, 11] was 1.5 h and the “T1/2 beta, Value” [4, 11] was 24.3 h. The “V1, Value” [4, 11] was 2.6 L/kg and the “Ka, Value” ([4]; Oral 4 mg) was 2.18 h⁻¹.

For COC(=O)[C@H]1[C@@H](OC(=O)c2ccccc2)C[C@@H]2CC[C@H]1N2C [Cocaine], the “A, Published parameter value” [5, 12] is given as 2.482 µg/mL, the “Alpha, Published parameter value” [5, 12] is given as 3.192 h⁻¹ and the “B, Published parameter value” [5, 12] is given as 1.997 µg/mL. The “Beta, Published parameter value” [5, 12] was 0.505 h⁻¹, the “Conc (plasma concentration)” value ([5]; Time 0.08333333 hr) was 3.868 µg/mL and the “Conc (plasma concentration)” value ([5]; Time 0.33333333 hr) was 2.476 µg/mL. For the same compound, the “Conc (plasma concentration)” value ([5]; Time 0.65 hr) was 2.031 µg/mL, the “Conc (plasma concentration)” value ([5]; Time 1 hr) was 1.222 µg/mL and the “Conc (plasma concentration)” value ([5]; Time 2.13333333 hr) was 0.696 µg/mL. For the same compound, the “Conc (plasma concentration)” value ([5]; Time 3.2 hr) was 0.453 µg/mL, the “Conc (plasma concentration)” value ([5]; Time 4.16666667 hr) was 0.219 µg/mL and the “Conc (plasma concentration)” value ([5]; Time 5.15 hr) was 0.145 µg/mL. For the same compound, the “Conc (plasma concentration)” value ([5]; Time 6.15 hr) was 0.094 µg/mL, the Alpha ([5]; IV bolus, Dose = 100 mg, X, Y) was 0.0135 min⁻¹ and 0.0172 min⁻¹ and 0.0147 min⁻¹ and the A [5, 13] was 860 ng/mL and 558 ng/mL and 1139 ng/mL. For the same compound, the Alpha [5, 13] was 0.0135 min⁻¹ and 0.0172 min⁻¹ and 0.0147 min⁻¹, the B ([5]; IV bolus, Dose = 200 mg, Sub-W) was 1997 ng/mL and the Beta ([5]; IV bolus, Dose = 200 mg, Sub-W) was 0.00842 min⁻¹. For the same compound, the Alpha ([5]; IV bolus, Dose = 200 mg, Z) was 0.0532 min⁻¹ and 0.00879 min⁻¹, the A [5, 14] was 2482 ng/mL and 1432 ng/mL and the Alpha [5, 14] was 0.0532 min⁻¹ and 0.00879 min⁻¹. For the same compound, the “A, Value” [5, 15] was 2482 ng/mL, the “Alpha, Value” [5, 15] was 0.05 min⁻¹ and the “B, Value” [5, 15] was 1997 ng/mL. For the same compound, the Cmax ([5]; IVBolus 200 mg) was “(Cmax = 3868) ng/ml”, the “Alpha, Selected Value” ([6]; maximum over all subjects and doses 100, 200 mg (Rule 7)) was 0.0532 min⁻¹ and the “Beta, Selected Value” ([6]; maximum over all subjects and doses (Rule 7)) was 0.00842 min⁻¹.

With CCOC(=O)c1cncn1[C@H](C)c1ccccc1 [etomidate] the “A, Globally optimized Parameter 1” value [7, 16] was 0.2958 µg/mL, the “Alpha, Globally optimized Parameter 1” value [7, 16] was 12.67 h⁻¹ and the “B, Globally optimized Parameter 1” value [7, 16] was 0.1079 µg/mL. The “Beta, Globally optimized Parameter 1” value [7, 16] was 1.124 h⁻¹, the “C, Globally optimized Parameter 1” value [7, 16] was 0.02617 µg/mL and the “Gamma, Globally optimized Parameter 1” value [7, 16] was 0.1092 h⁻¹. For the same compound, the “A, Globally optimized Parameter 2” value [7, 17] was 0.2529 µg/mL, the “Alpha, Globally optimized Parameter 2” value [7, 17] was 10.44 h⁻¹ and the “B, Globally optimized Parameter 2” value [7, 17] was 0.1149 µg/mL. The “Beta, Globally optimized Parameter 2” value [7, 17] was 0.351 h⁻¹, the “C, Globally optimized Parameter 2” value [7, 17] was 0.005408 µg/mL and the “Gamma, Globally optimized Parameter 2” value [7, 17] was 0.1074 h⁻¹. For the same compound, the “A, Globally optimized Parameter 3” value [7, 18] was 0.13 µg/mL, the “Alpha, Globally optimized Parameter 3” value [7, 18] was 5.539 h⁻¹ and the “B, Globally optimized Parameter 3” value [7, 18] was 0.1089 µg/mL. The “Beta, Globally optimized Parameter 3” value [7, 18] was 0.3627 h⁻¹, the “C, Globally optimized Parameter 3” value [7, 18] was 0.005084 µg/mL and the “Gamma, Globally optimized Parameter 3” value [7, 18] was 0.0375 h⁻¹. For the same compound, the “A, Locally Optimized parameter 1” value [7, 19] was 0.3151 µg/mL, the “Alpha, Locally Optimized parameter 1” value [7, 19] was 11.49 h⁻¹ and the “B, Locally Optimized parameter 1” value [7, 19] was 0.1076 µg/mL. For the same compound, the “Beta, Locally Optimized parameter 1” value [7, 19] was 0.8111 h⁻¹, the “C, Locally Optimized parameter 1” value [7, 19] was 0.01292 µg/mL and the “Gamma, Locally Optimized parameter 1” value [7, 19] was 0.03486 h⁻¹. The “A, Locally Optimized parameter 2” value [7, 20] was 0.3151 µg/mL, the “Alpha, Locally Optimized parameter 2” value [7, 20] was 11.49 h⁻¹ and the “B, Locally Optimized parameter 2” value [7, 20] was 0.1076 µg/mL. For the same compound, the “Beta, Locally Optimized parameter 2” value [7, 20] was 0.8111 h⁻¹, the “C, Locally Optimized parameter 2” value [7, 20] was 0.01292 µg/mL and the “Gamma, Locally Optimized parameter 2” value [7, 20] was 0.03486 h⁻¹. The “A, Locally Optimized parameter 3” value [7, 21] was 0.3151 µg/mL, the “Alpha, Locally Optimized parameter 3” value [7, 21] was 11.49 h⁻¹ and the “B, Locally Optimized parameter 3” value [7, 21] was 0.1076 µg/mL. For the same compound, the “Beta, Locally Optimized parameter 3” value [7, 21] was 0.8111 h⁻¹, the “C, Locally Optimized parameter 3” value [7, 21] was 0.01292 µg/mL and the “Gamma, Locally Optimized parameter 3” value [7, 21] was 0.03486 h⁻¹. The “A, Best Parameter/Best locally optimized value” [7, 22] was 0.3151 µg/mL, the “A, Initial value/globally optimized value” [7, 22] was 0.2703 µg/mL and the “Alpha, Best Parameter/Best locally optimized value” [7, 22] was 11.49 h⁻¹. For the same compound, the “Alpha, Initial value/globally optimized value” [7, 22] was 7.1437 h⁻¹, the “B, Best Parameter/Best locally optimized value” [7, 22] was 0.1076 µg/mL and the “B, Initial value/globally optimized value” [7, 22] was 0.07389 µg/mL. For the same compound, the “Beta, Best Parameter/Best locally optimized value” [7, 22] was 0.8111 h⁻¹, the “Beta, Initial value/globally optimized value” [7, 22] was 0.3665 h⁻¹ and the “C, Best Parameter/Best locally optimized value” [7, 22] was 0.01292 µg/mL. The “C, Initial value/globally optimized value” [7, 22] was 0.01092 µg/mL, the “Gamma, Best Parameter/Best locally optimized value” [7, 22] was 0.03486 h⁻¹ and the “Gamma, Initial value/globally optimized value” [7, 22] was 0.1479 h⁻¹. For the same compound, the “Conc (plasma concentration)” value ([8]; Time 0.067 hr) was 0.26 µg/mL, the “Conc (plasma concentration)” value ([8]; Time 0.133 hr) was 0.18 µg/mL and the “Conc (plasma concentration)” value ([8]; Time 0.25 hr) was 0.115 µg/mL. The “Conc (plasma concentration)” value ([8]; Time 0.5 hr) was 0.088 µg/mL, the “Conc (plasma concentration)” value ([8]; Time 1 hr) was 0.0599 µg/mL and the “Conc (plasma concentration)” value ([8]; Time 2 hr) was 0.0325 µg/mL. For the same compound, the “Conc (plasma concentration)” value ([8]; Time 3 hr) was 0.0213 µg/mL, the “Conc (plasma concentration)” value ([8]; Time 4 hr) was 0.0158 µg/mL and the “Conc (plasma concentration)” value ([8]; Time 5 hr) was 0.0126 µg/mL. The “Conc (plasma concentration)” value ([8]; Time 6 hr) was 0.0114 µg/mL, the “Conc (plasma concentration)” value ([8]; Time 7 hr) was 0.0105 µg/mL and the “Conc (plasma concentration)” value ([8]; Time 8 hr) was 0.0099 µg/mL. The “Conc (plasma concentration)” value ([8]; Time 9 hr) was 0.0095 µg/mL, the “Conc (plasma concentration)” value ([8]; Time 10 hr) was 0.0091 µg/mL and the “A, Published parameter value” ([8]; three compartment model) was 0.297 µg/mL. The “Alpha, Published parameter value” ([8]; three compartment model) was 12.02 h⁻¹, the “B, Published parameter value” ([8]; three compartment model) was 0.117 µg/mL and the “Beta, Published parameter value” ([8]; three compartment model) was 0.935 h⁻¹. For the same compound, the “C, Published parameter value” ([8]; three compartment model) was 0.017 µg/mL and the “Gamma, Published parameter value” ([8]; three compartment model) was 0.064 h⁻¹.

For CC(C)NCC(O)COc1ccc(CCOCC2CC2)cc1 (stereo not drawn) [Betaxolol], the Vd [9] is listed as 5.81 L/kg, the clearance [9] is listed as 300 mL/min and the “AUC, Mean Value” [10] is listed as 0.61 µg·h/mL. For the same compound, the “CL, Mean Value” [10] was 15.1 L/h, the “Lambda_Z, Mean Value” [10] was 0.0415 h⁻¹ and the “Vz, Mean Value” [10] was 5.07 L/kg.
